Results taken from US20230172204A1 (BASF SE, priority 2020, published 2023).

What was measured:
[1] = tested on: Phakopsora pachyrhizi (F129L); test: Protective control of soybean rust on soybeans (PHAKPA P2); type: in vivo; conditions: for % PHAKPA (F129L) Disease level P2 at 4 ppm: protective P2, 4 ppm; for % PHAKPA (F129L) Disease level P2 at 4 ppm / % PHAKPA (F129L) Disease level P2 at 16 ppm: soybean rust F129L; for % PHAKPA (F129L) Disease level P2 at 16 ppm: protective P2, 16 ppm; for PHAKPA (F129L) Disease level (%) P2 at 4 ppm / PHAKPA (F129L) Disease level (%) P2 at 16 ppm: P2 protective, % diseased leaf area
[2] = tested on: Phakopsora pachyrhizi (F129L); test: Protective control of soybean rust on soybeans (PHAKPA P6); type: in vivo; conditions: for % PHAKPA (F129L) Disease level P6 at 4 ppm: protective P6, 4 ppm; for % PHAKPA (F129L) Disease level P6 at 4 ppm / % PHAKPA (F129L) Disease level P6 at 16 ppm: soybean rust F129L; for % PHAKPA (F129L) Disease level P6 at 16 ppm: protective P6, 16 ppm; for PHAKPA (F129L) Disease level (%) P6 at 4 ppm / PHAKPA (F129L) Disease level (%) P6 at 16 ppm: P6 protective, % diseased leaf area

Row | Compound | % PHAKPA (F129L) Disease level P2 at 4 ppm [1] | % PHAKPA (F129L) Disease level P2 at 16 ppm [1] | % PHAKPA (F129L) Disease level P6 at 4 ppm [2] | % PHAKPA (F129L) Disease level P6 at 16 ppm [2] | PHAKPA (F129L) Disease level (%) P2 at 4 ppm [1] | PHAKPA (F129L) Disease level (%) P6 at 4 ppm [2] | PHAKPA (F129L) Disease level (%) P2 at 16 ppm [1] | PHAKPA (F129L) Disease level (%) P6 at 16 ppm [2]
1 | CNC(=O)/C(=N/OC)c1cccc(C)c1CO/N=C(\C)c1ccccc1OC1CC1 [compound 329] | 100% | 53% | 100% | 73% |  |  |  | 
2 | CO/C=C(/C(=O)OC)c1cccc(C)c1CO/N=C(\C)c1ccc(-c2ccccc2)cc1OC(F)(F)F [compound 433] | 83% | 67% | 80% | 57% |  |  |  | 
3 | CNC(=O)/C(=N/OC)c1cccc(C)c1CO/N=C(\C)c1ccc(OC(F)(F)F)cc1 [compound 136] | 1% | 0% | 3% | 2% |  |  |  | 
4 | CNC(=O)/C(=N/OC)c1cccc(C)c1CO/N=C(\C)c1c(Cl)cccc1C(F)(F)F [compound 290] | 92% | 14% | 83% | 21% |  |  |  | 
5 | CCc1ccc(/C(C)=N/OCc2c(C)cccc2/C(=N\OC)C(=O)NC)cc1 [Ex. 165] | 0% | 0% | 17% | 0% | 0% | 27% |  | 
6 | CNC(=O)/C(=N/OC)c1cccc(C)c1CO/N=C(\C)c1ccc(Cl)c(Cl)c1 [Ex. 41] | 15% | 9% | 36% | 14% | 4% | 35% |  | 
7 | CCc1cc(/C(C)=N/OCc2c(C)cccc2/C(=N\OC)C(=O)OC)cc(C(F)(F)F)c1 [compound 146] | 73% | 12% | 77% | 48% |  |  |  | 
8 | CO/N=C(/C(=O)OC)c1ccccc1CO/N=C(\C)c1ccc(C(F)(F)F)cc1 [reference compound] |  |  |  |  |  |  | 43% | 13%
9 | CO/N=C(/C(=O)OC)c1cccc(Br)c1CO/N=C(\C)c1ccccc1 [compound 395] | 43% | 4% | 67% | 18% |  |  |  | 
10 | CNC(=O)/C(=N/OC)c1cccc(C)c1CO/N=C(\C)c1ccc(/C(C)=N\OC)cc1C(F)(F)F [compound 420] | 8% | 0% | 12% | 1% |  |  |  | 
11 | CNC(=O)/C(=N/OC)c1cccc(CF)c1CO/N=C(\C)c1cccc(C(F)(F)F)c1 [compound 26] | 12% | 0% | 19% | 1% |  |  |  | 
12 | CO/N=C(/C)c1ccc(/C(C)=N/OCc2c(C)cccc2/C(=N\OC)C(=O)OC)c(C(F)(F)F)c1 [compound 417] | 35% | 18% | 63% | 22% |  |  |  | 
13 | CCC/C(=N\OCc1c(C)cccc1/C(=N\OC)C(=O)OC)c1ccccc1 [compound 387] | 60% | 30% | 80% | 47% |  |  |  | 
14 | CNC(=O)/C(=N/OC)c1cccc(C)c1CO/N=C(\C(C)=O)c1cccc(C(F)(F)F)c1 [compound 93] | 83% | 32% | 43% | 37% |  |  |  | 
15 | CO/N=C(/C)c1ccc(/C(C)=N/OCc2c(C)cccc2/C(=N\OC)C(=O)OC)c(OC(F)(F)F)c1 [compound 418] | 70% | 33% | 73% | 57% |  |  |  | 
16 | CNC(=O)/C(=N/OC)c1cccc(C)c1CO/N=C(\C)c1cccc(C2CC2(Cl)Cl)c1 (centres unmarked) [compound 75] | 8% | 0% | 13% | 1% |  |  |  | 
17 | CNC(=O)/C(=N/OC)c1cccc(C)c1CO/N=C(\C)c1c(Cl)ccc(F)c1OC(F)(F)F [compound 440] | 93% | 23% | 73% | 23% |  |  |  | 
18 | CO/N=C(/C(=O)OC)c1cccc(C)c1CO/N=C(\C)c1cc(C#N)cc(C(F)(F)F)c1 [compound 48] | 100% | 80% | 100% | 67% |  |  |  | 

Row | Compound | % PHAKPA (F129L) Disease level P2 at 4 ppm [1] | % PHAKPA (F129L) Disease level P2 at 16 ppm [1] | % PHAKPA (F129L) Disease level P6 at 4 ppm [2] | % PHAKPA (F129L) Disease level P6 at 16 ppm [2] | PHAKPA (F129L) Disease level (%) P2 at 4 ppm [1] | PHAKPA (F129L) Disease level (%) P6 at 4 ppm [2] | PHAKPA (F129L) Disease level (%) P2 at 16 ppm [1] | PHAKPA (F129L) Disease level (%) P6 at 16 ppm [2]
19 | CO/N=C(/C(=O)OC)c1cccc(C)c1CO/N=C(\C)c1cc(Cl)cc(Cl)c1F [compound 110] | 20% | 3% | 30% | 1% |  |  |  | 
20 | CNC(=O)/C(=N/OC)c1cccc(C)c1CO/N=C(\C)c1ccc(Br)cc1 [compound 168] | 2% | 0% | 5% | 0% |  |  |  | 
21 | CO/N=C(/C(=O)OC)c1cccc(C)c1CO/N=C(\C)c1ccc(OC)cc1C(F)(F)F [compound 328] | 33% | 8% | 23% | 5% |  |  |  | 
22 | CNC(=O)/C(=N/OC)c1cccc(C)c1CO/N=C(\C)c1ccc(Cl)c(C(F)(F)F)c1 [Ex. 60] | 23% | 1% | 53% | 2% |  |  | 0% | 0%
23 | CNC(=O)/C(=N/OC)c1cccc(C)c1CO/N=C(\C)c1cccc(-c2ccccc2)c1 [compound 98] | 3% | 0% | 1% | 0% |  |  |  | 
24 | CO/N=C(/C(=O)OC)c1cccc(C)c1CO/N=C(\C)c1c(F)cc(F)cc1F [compound 169] | 77% | 0% | 77% | 0% |  |  |  | 
25 | CO/N=C(/C(=O)OC)c1cccc(C)c1CO/N=C(\SC)c1cccc(Cl)c1 [drawing 982, reference compound] |  |  |  |  | 47% |  |  | 18%
26 | CNC(=O)/C(=N/OC)c1cccc(C)c1CO/N=C(\C)c1c(Cl)ccc(Cl)c1OC(F)(F)F [compound 441] | 100% | 43% | 97% | 50% |  |  |  | 
27 | CNC(=O)/C(=N/OC)c1cccc(C)c1CO/N=C(\C)c1ccccc1C1CC1 [compound 219] | 60% | 8% | 87% | 43% |  |  |  | 
28 | CO/N=C(/C(=O)OC)c1cccc(C)c1CO/N=C(\C)c1ccc(C)c(C(F)(F)F)c1 [compound 229] | 27% | 2% | 77% | 6% |  |  |  | 
29 | CNC(=O)/C(=N/OC)c1cccc(C)c1CO/N=C(\C)c1ccc(F)cc1C(F)(F)F [compound 260] | 22% | 0% | 22% | 0% |  |  |  | 
30 | CNC(=O)/C(=N/OC)c1cccc(OC)c1CO/N=C(\C)c1cccc(C(F)(F)F)c1 [compound 461] | 26% | 2% | 52% | 6% |  |  |  | 
31 | CNC(=O)/C(=N/OC)c1cccc(C)c1CO/N=C(\C)c1c(F)ccc(F)c1OC(F)(F)F [compound 346] | 4% | 0% | 5% | 0% |  |  |  | 
32 | CO/C=C(/C(=O)OC)c1cccc(C)c1CO/N=C(\C)c1ccc(C)cc1C(F)(F)F [compound 446] | 2% | 0% | 6% | 0% |  |  |  | 
33 | CO/C=C(/C(=O)OC)c1cccc(C)c1CO/N=C(\C)c1cc(F)c(F)cc1CC(F)(F)F [compound 405] | 97% | 27% | 70% | 27% |  |  |  | 
34 | CNC(=O)/C(=N/OC)c1cccc(C)c1CO/N=C(\C)c1cccc(F)c1 [compound 85] | 1% | 0% | 0% | 0% |  |  |  | 
35 | CO/N=C(/C(=O)OC)c1cccc(C)c1CO/N=C(/c1cccc(C)c1)C1CC1 [drawing 971, reference compound] |  |  |  |  | 80% |  |  | 37%
